Experimental data published in PMC12210912, “Pharmacologic properties and inhibitory activity of 6-azasteroids against Mycobacterium leprae in vivo and in vitro” (Microbiology Spectrum, 2025).
pIC50: −log10 of the molar value.

Legend:
[1] = stability in human liver microsomes; type: in vitro ADME; conditions: both sexes, human liver microsomes, pH 7.4, 1 μM, HLM 0.5 mg/mL, 37°C, 1 h, mean of duplicates, read-out: HLM stability t1/2
Protocol: Experiments were performed by Pharmaron, Inc., China. […] Negative control samples were prepared by replacing the NADPH solution with ultrapure H2O. The negative controls were used to exclude the confounding variable of test compound instability. Experiments involving NADPH were carried out in duplicate. Negative controls were prepared in singlet. Aliquots (90 µL) were taken at 0, 15, 30, 45, and 60 min of incubation. The microsomal reaction in each aliquot was stopped by the addition of four volumes of cold acetonitrile containing internal standards (100 nM alprazolam, 200 nM imipramine, 200 nM labetalol, and 2 µM ketoprofen). The samples were centrifuged at 3,220 × g for 40 min, and an aliquot (90 µL) of the supernatant was mixed with 90 µL of ultrapure H2O. The resulting mixture was used for liquid chromatography–tandem mass spectrometry (LC-MS/MS) analysis (Shimadzu and SCIEX Triple Quad 4500). Peak areas were determined from extracted ion chromatograms. A slope, k, was determined by linear regression analysis of a plot of the natural logarithm of the remaining percentage of the parent drug versus incubation time. The in vitro t1/2 (min) was determined from the slope: in vitro t1/2=−(0.693/k) In vitro t1/2 (min, mean of duplicate determinations) was converted to in vitro intrinsic clearance (in vitro Clint, μL/(min·µg protein)) by means of the following equation : in vitro Clint=(0.693/t1/2)×(volume of incubation (μL)/amount of protein (μg))

HepG2 cells = conditions: cited from earlier work
M. leprae = assay: Shepard's mouse footpad model: bacilli count and molecular viability; type: in vivo, Mycobacterium leprae; conditions: Balb/c mice, 1 month, vehicle median 8.110 × 10^4
Protocol: Animal experimentation was conducted under approval by the ILSL ethical committee ([…] 02/19). Balb/c female mice with 8-week-old were inoculated with 5 × 10^3 live M. leprae bacilli, strain Thai-53, in both hind footpads, as previously described for the Shepard's model ([25]). Eight groups were tested in the experiment: (i) M. leprae control group (n = 5) inoculated with M. leprae and no additional treatment; (ii) vehicle control group (n = 4) inoculated with M. leprae and treatment with vehicle of the drugs; (iii) regular rifampicin treatment, 10 mg/Kg dose; […] (v) compound 2 treatment (n = 4), 50 mg/kg dose; […] One month after inoculation, mice from the control group were euthanized and the hind footpad was collected to assess the establishment of the infection by bacillary enumeration. At that time point, vehicle or drug treatment was started for the remaining groups. All compounds were administrated by gavage, rifampicin was administered weekly, and the compounds were administered daily (excluding weekends) for 1 month (20 doses). Mice were euthanized 6 h after administration of the last dose, and blood was collected in heparin-coated tubes by cardiac puncture for blood enzyme evaluation and compound 5 measurement by LC/MS in the plasma. The infected hind footpads from each group of mice were excised, homogenized and bacilli enumerated in a 100 μL aliquot as previously described ([26]). The remaining homogenate was centrifuged at 12,000 × g for 15 min, the supernatant was discarded, and the pellet was suspended in 750 μL of RNA later solution (Thermo Fisher Scientific). The homogenized tissue pellet was incubated at 4°C for 16 h and stored at -80°C until determination of M. leprae viability was performed by RT-qPCR ([27], [28]). […] RNA and DNA extractions were performed as previously described ([10], [27]). RNA samples were treated with the Turbo DNA-free kit (Thermo Fisher Scientific), and 1,000 ng of DNAse-treated RNA was then used to synthesize the cDNA using the GoScript kit (Promega, USA).

| SMILES | half-life at 1 µM [1] [h] | pIC50 (HepG2 cells) | bacillary load in footpad, median (M. leprae; rifampicin 10 mg/kg weekly by gavage) | bacillary load in footpad, median (M. leprae; sub-inhibitory rifampicin 1 mg/kg weekly by gavage) |
| --- | --- | --- | --- | --- |
| C[C@]12CCC3C(CN(CCCF)C4CC(=O)CC[C@]34C)C1CCC2C(=O)Nc1cc(C(F)(F)F)ccc1C(F)(F)F (some centres unmarked) [Compound 3] | 0.75 | < 4.00 |  |  |
| C[C@]12CCC3C(CN(CCC(F)(F)F)C4CC(=O)CC[C@]34C)C1CCC2C(=O)Nc1cc(C(F)(F)F)ccc1C(F)(F)F (some centres unmarked) [Compound 4] | 1.05 | < 4.00 |  |  |
| CO[C@H]1/C=C/O[C@@]2(C)Oc3c(C)c(O)c4c(O)c(c(/C=N/N5CCN(C)CC5)c(O)c4c3C2=O)NC(=O)/C(C)=C\C=C\[C@H](C)[C@H](O)[C@@H](C)[C@@H](O)[C@@H](C)[C@H](OC(C)=O)[C@@H]1C [rifampicin, reference compound] |  |  | 0.438 × 10^4 | 7.890 × 10^4 |
| CCCN1CC2C3CCC(C(=O)NC(c4ccc(F)cc4)c4ccc(F)cc4)[C@@]3(C)CCC2[C@@]2(C)CCC(=O)C=C12 (some centres unmarked) [Compound 6] | 5.62 | < 4.00 |  |  |
